Source: PubChem BioAssay (NCI)
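Test compounds were applied to cells in 96-well plates for 48 hours at 5 doses. TGI is the concentration that stops growth completely.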

Key:
Test in all cases: DTP human tumour cell line panel, 48 h
[1] = tested on: MDA-MB-231 breast
[2] = tested on: UACC-62 melanoma
[3] = tested on: A498 renal
[4] = tested on: UO-31 renal
[5] = tested on: DU-145 prostate
[6] = tested on: BT-549 breast
[7] = tested on: NCI-H522 lung
[8] = tested on: CCRF-CEM leukemia
[9] = tested on: SNB-19 CNS
[10] = tested on: COLO 205 colon
[11] = tested on: SF-268 CNS
[12] = tested on: SR leukemia
[13] = tested on: HCT-116 colon
[14] = tested on: A549 NSCLC
[15] = tested on: OVCAR-3 ovarian
[16] = tested on: HCT-15 colon
[17] = tested on: NCI-H460 lung
[18] = tested on: MDA-MB-435
[19] = tested on: SK-MEL-5 melanoma
[20] = tested on: LOX IMVI melanoma
[21] = tested on: RPMI-8226 leukemia
[22] = tested on: NCI/ADR-RES ovarian
[23] = tested on: HL-60(TB) leukemia
[24] = tested on: TK-10 renal
[25] = tested on: MDA-N
[26] = tested on: OVCAR-4 ovarian
[27] = tested on: KM12 colon
[28] = tested on: NCI-H23 lung
[29] = tested on: RXF 393 renal
[30] = tested on: OVCAR-5 ovarian
[31] = tested on: T-47D breast
[32] = tested on: HOP-62 NSCLC
[33] = tested on: HT29 colon
[34] = tested on: SW-620 colon
[35] = tested on: SNB-75 CNS
[36] = tested on: M14 melanoma
[37] = tested on: K-562 leukemia
[38] = tested on: 786-0 renal
[39] = tested on: SK-MEL-28 melanoma
[40] = tested on: ACHN renal
[41] = tested on: SK-OV-3 ovarian
[42] = tested on: U251 CNS
[43] = tested on: MCF7 breast
[44] = tested on: SF-295 CNS
[45] = tested on: MOLT-4 leukemia
[46] = tested on: SN12C renal
[47] = tested on: OVCAR-8 ovarian
[48] = tested on: HS 578T breast
[49] = tested on: PC-3 prostate
[50] = tested on: IGROV1 ovarian
[51] = tested on: SF-539 CNS
[52] = tested on: NCI-H226 lung
[53] = tested on: HOP-92 NSCLC
[54] = tested on: UACC-257 melanoma
[55] = tested on: MALME-3M melanoma
[56] = tested on: CAKI-1 renal
[57] = tested on: HCC-2998 colon
[58] = tested on: SK-MEL-2 melanoma
[59] = tested on: EKVX NSCLC

With `COC(=O)NC(C(F)(F)F)(C(F)(F)F)P1(=O)OCCCO1` the TGI [1] was 62.9 µM, the TGI [2] was 33.2 µM and the TGI [3] was 38 µM. For the same compound, the TGI [4] was 65.6 µM, the TGI [5] was over 100 µM and the TGI [6] was 68.3 µM. For the same compound, the TGI [7] was 34 µM, the TGI [8] was over 100 µM and the TGI [9] was 78.7 µM. For the same compound, the TGI [10] was 69.9 µM, the TGI [11] was 73.8 µM and the TGI [12] was 69.5 µM. For the same compound, the TGI [13] was 62 µM, the TGI [14] was over 100 µM and the TGI [15] was over 100 µM. It also gave a TGI [16] of 59 µM, a TGI [17] of 84.6 µM and a TGI [18] of 46.1 µM. It also gave a TGI [19] of 40.6 µM, a TGI [20] of 58.4 µM and a TGI [21] of 48.5 µM. For the same compound, the TGI [22] was over 100 µM, the TGI [23] was 51.1 µM and the TGI [24] was 97.6 µM. The TGI [25] was 70.3 µM, the TGI [26] was over 100 µM and the TGI [27] was 64.7 µM. For the same compound, the TGI [28] was 50.9 µM, the TGI [29] was 15 µM and the TGI [30] was 82.1 µM. The TGI [31] was 84.3 µM, the TGI [32] was 58.6 µM and the TGI [33] was 63.9 µM. It also gave a TGI [34] of 82.4 µM, a TGI [35] of over 100 µM and a TGI [36] of over 100 µM. The TGI [37] was over 100 µM, the TGI [38] was over 100 µM and the TGI [39] was over 100 µM. The TGI [40] was 54.2 µM, the TGI [41] was 55.7 µM and the TGI [42] was 29.8 µM. The TGI [43] was over 100 µM, the TGI [44] was 55.3 µM and the TGI [45] was over 100 µM. The TGI [46] was over 100 µM, the TGI [47] was 83.3 µM and the TGI [48] was over 100 µM. It also gave a TGI [49] of over 100 µM, a TGI [50] of 68.8 µM and a TGI [51] of 43 µM. The TGI [52] was 98.7 µM and the TGI [53] was over 100 µM.

For `COc1ccc(C[C@H]2COC(=O)[C@@H]2Cc2cccc(Br)c2)cc1OC`, the TGI [1] was 64.9 µM, the TGI [2] was over 100 µM and the TGI [4] was 82.3 µM. For the same compound, the TGI [5] was over 100 µM, the TGI [6] was 61.2 µM and the TGI [7] was 47.5 µM. The TGI [8] was 39.2 µM, the TGI [9] was over 100 µM and the TGI [10] was 28.7 µM. The TGI [11] was over 100 µM, the TGI [12] was 32.8 µM and the TGI [13] was over 100 µM. The TGI [14] was over 100 µM, the TGI [15] was 60.4 µM and the TGI [54] was 56.2 µM. It also gave a TGI [16] of over 100 µM, a TGI [17] of 67.2 µM and a TGI [18] of 56.9 µM. For the same compound, the TGI [19] was 30.5 µM, the TGI [20] was 14.6 µM and the TGI [21] was 56.1 µM. For the same compound, the TGI [22] was over 100 µM, the TGI [23] was 38.6 µM and the TGI [24] was 82 µM. For the same compound, the TGI [25] was 60.1 µM, the TGI [26] was 58 µM and the TGI [55] was 47.6 µM. It also gave a TGI [27] of 43.3 µM, a TGI [28] of over 100 µM and a TGI [56] of 30 µM. The TGI [29] was 77.6 µM, the TGI [30] was over 100 µM and the TGI [31] was over 100 µM. It also gave a TGI [32] of over 100 µM, a TGI [57] of 66.4 µM and a TGI [33] of 60.8 µM. It also gave a TGI [34] of 83.3 µM, a TGI [35] of 55.5 µM and a TGI [36] of 27.8 µM. For the same compound, the TGI [37] was over 100 µM, the TGI [38] was over 100 µM and the TGI [39] was 68.4 µM. It also gave a TGI [40] of 84.9 µM, a TGI [41] of 66.4 µM and a TGI [42] of 73.4 µM. The TGI [43] was 63.2 µM, the TGI [44] was over 100 µM and the TGI [45] was 82.3 µM. The TGI [46] was over 100 µM, the TGI [47] was 69.6 µM and the TGI [48] was over 100 µM. The TGI [49] was 53.6 µM, the TGI [50] was over 100 µM and the TGI [58] was 73.5 µM. It also gave a TGI [51] of 41.4 µM, a TGI [52] of over 100 µM and a TGI [59] of 97.1 µM. The TGI [53] was 48.3 µM.
